According to patent publication US20250295646A1, “METHODS OF USE OF T-TYPE CALCIUM CHANNEL MODULATORS” (Praxis Precision Medicines, Inc., priority 2022, published 2025):

Assays:
[1] = system: adult patients with essential tremor; test: Essential tremor trial Example 16 Part A (open label 20-40 mg): TETRAS efficacy; type: in vivo, human; details: for TETRAS CULS Score CFB LS Mean / TETRAS PS Item 6: Archimedes Spiral (Left) Score CFB LS Mean / TETRAS PS Item 6: Archimedes Spiral (Right) Score CFB LS Mean / TETRAS PS Item 7: Handwriting Score CFB LS Mean / TETRAS PSTS Score CFB LS Mean / TETRAS ULS Score CFB LS Mean / TETRAS CULS CTA LS Mean % / TETRAS PS Item 6: Archimedes Spiral (Left) CTA LS Mean % / TETRAS PS Item 6: Archimedes Spiral (Right) CTA LS Mean % / TETRAS PS Item 7: Handwriting CTA LS Mean % / TETRAS PSTS CTA LS Mean % / TETRAS ULS CTA LS Mean %: FAS
Description: A two part trial (Part A and Part B as described below) was conducted to study the efficacy, safety, tolerability, and pharmacokinetics of the compound of formula (I) in adult patients with essential tremor (ET).
Participants were males and females ages 18 and older with a clinical diagnosis of ET. Participants who have a history of any other medical, neurological, or psychiatric condition that may explain or cause tremor were excluded. Participants who have previously received treatment with formula (I) in any clinical trial (including Part A of the current trial for participants enrolling in Part B) were also excluded.
In Part A, an open label trial was conducted.

[2] = Example 16 Part B: treatment emergent adverse events, down-titration, discontinuation
Description: Patients were scheduled for Safety Follow-up on Day 70 (±1 day) in the clinic for the final clinical trial assessment.

[3] = Day 7, change from pre-dose baseline
[4] = Day 7, change in tremor amplitude from pre-dose baseline
[5] = Day 14, change from pre-dose baseline
[6] = Day 14, change in tremor amplitude from pre-dose baseline
[7] = Day 21 (FU Assessment), change from pre-dose baseline
[8] = Day 21 (FU Assessment), change in tremor amplitude from pre-dose baseline
[9] = Part B Randomized Withdrawal (N = 11), arm (Formula (I) or placebo) not stated
[10] = Part B, reported by the same patient

## CC(C)(C)NC(=O)CN1CCC(CNC(=O)c2cc(F)cc(Cl)c2)CC1 [compound of formula (I), N-((1-(2-(tert-butylamino)-2-oxoethyl)piperidin-4-yl)methyl)-3-chloro-5-fluorobenzamide]
[1]; Day 7
  TETRAS combined upper limb score, LS mean change from pre-dose baseline: −1.667
  TETRAS upper limb score, LS mean change from pre-dose baseline: −1.427
  reduction in combined upper limb tremor amplitude: 16.0%
  reduction in upper limb tremor amplitude: 23.9%
[1]; Day 14
  TETRAS combined upper limb score, LS mean change from pre-dose baseline: −4.239
  TETRAS upper limb score, LS mean change from pre-dose baseline: −2.912
  reduction in combined upper limb tremor amplitude: 35.8%
  reduction in upper limb tremor amplitude: 42.8%
[1]; Day 21 follow-up
  TETRAS combined upper limb score, LS mean change from pre-dose baseline: −0.278
  reduction in combined upper limb tremor amplitude: 2.9%
  reduction in upper limb tremor amplitude: 20.3%
[1]; Day 21 follow-up (1 week after cessation)
  TETRAS upper limb score, LS mean change from pre-dose baseline: −1.183
[1]; [3]
  TETRAS CULS Score CFB LS Mean: −1.667
  TETRAS PS Item 6: Archimedes Spiral (Left) Score CFB LS Mean: −0.213
  TETRAS PS Item 6: Archimedes Spiral (Right) Score CFB LS Mean: −0.091
  TETRAS PS Item 7: Handwriting Score CFB LS Mean: −0.012
  TETRAS PSTS Score CFB LS Mean: −1.990
  TETRAS ULS Score CFB LS Mean: −1.427
[1]; [4]
  TETRAS CULS CTA LS Mean %: −16.0%
  TETRAS PS Item 6: Archimedes Spiral (Left) CTA LS Mean %: −21.8%
  TETRAS PS Item 6: Archimedes Spiral (Right) CTA LS Mean %: −9.9%
  TETRAS PS Item 7: Handwriting CTA LS Mean %: −1.4%
  TETRAS PSTS CTA LS Mean %: −13.3%
  TETRAS ULS CTA LS Mean %: −23.9%
[1]; [5]
  TETRAS CULS Score CFB LS Mean: −4.239
  TETRAS PS Item 6: Archimedes Spiral (Left) Score CFB LS Mean: −0.468
  TETRAS PS Item 6: Archimedes Spiral (Right) Score CFB LS Mean: −0.346
  TETRAS PS Item 7: Handwriting Score CFB LS Mean: −0.348
  TETRAS PSTS Score CFB LS Mean: −5.163
  TETRAS ULS Score CFB LS Mean: −2.912
[1]; [6]
  TETRAS CULS CTA LS Mean %: −35.8%
  TETRAS PS Item 6: Archimedes Spiral (Left) CTA LS Mean %: −41.7%
  TETRAS PS Item 6: Archimedes Spiral (Right) CTA LS Mean %: −32.9%
  TETRAS PS Item 7: Handwriting CTA LS Mean %: −33.0%
  TETRAS PSTS CTA LS Mean %: −31.0%
  TETRAS ULS CTA LS Mean %: −42.8%
[1]; [7]
  TETRAS CULS Score CFB LS Mean: −0.278
  TETRAS PS Item 6: Archimedes Spiral (Left) Score CFB LS Mean: 0.201
  TETRAS PS Item 6: Archimedes Spiral (Right) Score CFB LS Mean: −0.061
  TETRAS PS Item 7: Handwriting Score CFB LS Mean: 0.330
  TETRAS PSTS Score CFB LS Mean: −1.293
  TETRAS ULS Score CFB LS Mean: −1.183
[1]; [8]
  TETRAS CULS CTA LS Mean %: −2.9%
  TETRAS PS Item 6: Archimedes Spiral (Left) CTA LS Mean %: 20.7%
  TETRAS PS Item 6: Archimedes Spiral (Right) CTA LS Mean %: −6.7%
  TETRAS PS Item 7: Handwriting CTA LS Mean %: 31.6%
  TETRAS PSTS CTA LS Mean %: −8.9%
  TETRAS ULS CTA LS Mean %: −20.3%
[2]; Part B
  TEAE associated with discontinuation: Confusional state: 1
  TEAE associated with discontinuation: Cyst: 1
  TEAE associated with discontinuation: Disturbance in attention: 1
  TEAE leading to down titration: Confusional state: 1
  TEAE leading to down titration: Disturbance in attention: 1
  TEAE leading to down titration: Dizziness postural: 1
  TEAE leading to down titration: Paraesthesia: 1
  TEAE leading to down titration: Somnolence: 1
  participants who discontinued administration: three of 14 participants
  participants who down-titrated: Four of 14 participants
[2]; Part B Open Label (N = 14)
  TEAE Anxiety, participants: 1
  TEAE Cognitive Disorder, participants: 1
  TEAE Constipation, participants: 6
  TEAE Dizziness, participants: 4
  TEAE Fatigue, participants: 3
  TEAE Headache, participants: 1
  TEAE Insomnia, participants: 2
  TEAE Paraesthesia, participants: 2
[2]; [9]
  TEAE Fatigue, participants: 1
  TEAE Headache, participants: 1
[2]; Part B, essential tremor patients
  dosing well-tolerated with titration: up to 120 mg
[2]; [10]
  TEAE associated with discontinuation: Gait disturbances: 1
  TEAE associated with discontinuation: Hypotension: 1
  TEAE associated with discontinuation: Muscle fatigue: 1
  TEAE associated with discontinuation: Speech disorder: 1
